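Dose response: 5 concentrations. Exposure: 48 h. Format: 96-well plates. Endpoint: linear interpolation; highest concentration if not reached. GI50: concentration for 50% inhibition of growth. At the TGI there is no net growth.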
How the values were obtained:
Experiment in all cases: inhibition of tumour cell growth, NCI panel, 48 h
[1] = tested on: SW-620 colon
[2] = tested on: SK-MEL-28 melanoma
[3] = tested on: HS 578T breast
[4] = tested on: M14 melanoma
[5] = tested on: MDA-N
[6] = tested on: KM12 colon
[7] = tested on: HL-60(TB) leukemia
[8] = tested on: HOP-92 NSCLC
[9] = tested on: MDA-MB-231 breast

| SMILES | TGI [1] [µM] | TGI [2] [µM] | TGI [3] [µM] | TGI [4] [µM] | TGI [5] [µM] | TGI [6] [µM] | TGI [7] [µM] | TGI [8] [µM] | TGI [9] [µM] | GI50 [3] [µM] | GI50 [1] [µM] | GI50 [7] [µM] | GI50 [8] [µM] | GI50 [2] [µM] | GI50 [9] [µM] | GI50 [4] [µM] | GI50 [6] [µM] |
| --- | --- | --- | --- | --- | --- | --- | --- | --- | --- | --- | --- | --- | --- | --- | --- | --- | --- |
| CCn1ncc(N=O)c1N | > 100 | > 100 | > 100 | > 100 | > 100 | > 100 | – | – | – | – | – | – | – | – | – | – | – |
| Nc1nc(N)c2c(n1)CCC(S(=O)(=O)c1ccc3ccccc3c1)C2 (configuration not stated) | > 100 | > 100 | 77.6 | 61 | > 100 | > 100 | 23.6 | > 72.2 | > 60.5 | 5.05 | – | – | – | – | – | – | – |
| CC1(C)C(CC(=O)O)CCCC1CC(=O)O (configuration not stated) | > 100 | > 100 | > 100 | > 100 | > 100 | > 100 | – | – | > 100 | – | – | – | – | – | – | – | – |
| C=CC(=O)N1CCC[C@@H](n2nc(-c3ccc(Oc4ccccc4)cc3)c3c(N)ncnc32)C1 | > 10 | > 10 | > 10 | > 10 | – | > 10 | > 10 | > 8.69 | > 10 | > 10 | > 10 | > 5.51 | 2.67 | > 10 | 9.69 | > 7.36 | > 8.92 |
| CC(=O)Nc1cc2c3c(cccc3c1)-c1ccccc1-2 | > 100 | > 100 | 94.6 | > 100 | – | > 100 | > 100 | 44.8 | 25.8 | 29.3 | 95.6 | 0.25 | 17.8 | > 100 | 10.6 | > 100 | 32.7 |
| COc1cc(N2CCC(N)CC2)ccc1Nc1ncc(Cl)c(-c2c[nH]c3ccccc23)n1 | 1.44 | 2.64 | 3.87 | 1.73 | – | 1.14 | 2.75 | 0.345 | 2.79 | 0.741 | 0.183 | 0.0412 | 0.035 | 1.31 | 1.22 | 0.373 | 0.302 |
| Nc1cc(N)c2nc(NCCc3ccc(Cl)c(Cl)c3)cnc2c1 | 32 | 26.2 | 56.9 | 38.5 | – | 30.4 | 4.88 | 19.5 | 16.5 | 23.5 | 16.2 | 2.15 | 6.15 | 13.4 | 4.72 | 18 | 13 |
| COc1c(B(O)O)cccc1-c1nc2c(F)cc3n[nH]c(C)c3c2c2c1CCCC2 | > 50 | > 38.8 | > 50 | 8.93 | – | > 50 | > 12.9 | 2.57 | > 50 | 0.118 | 0.727 | 0.5 | 0.0117 | 2.1 | 0.0412 | 2.28 | 1.31 |
| CC(C)C1=CC2=C(C(=O)C1=O)C13CCCC(C)(C)C1CC2OC3=O (configuration not stated) | 35.2 | 31.7 | > 100 | 70.6 | 37.2 | > 100 | 36.3 | 37.3 | 42.6 | – | – | – | – | – | – | – | – |
